For orientation: EC50 means the concentration at which the effect is half-maximal. The IC50 is the concentration that inhibits the measured activity by half. High values mean weaker potency, low ones greater potency.

The subject of test [1] is CPTHR. Put plainly: Downregulation of CPTHR binding in C59 cells after pretreatment. Format: cell-based, mouse. Conditions: for Downregulation of CPTHR binding: exposure 24 hr; for Radioligand binding, % of controls after drug removal: 24 h after removal; for Reduction of specific binding: preincubation 16 h. Here is the method: Specific binding, is expressed as mean ± standard deviation of triplicates. * p<0.05, ** P<0.01.
For binding experiments, cells (100,000 cells/ml) were plated in 24-well dishes and cultured at 33° C. for 7 to 14 days. […] Receptor number was ascertained by Scatchard analysis, using [Tyr^34]hPTH-(19-84) or hPTH(1-84) as competing ligand. […] In some experiments, cells were washed with acidic buffer (50 mM glycine, 150 mM NaCl, pH 4.0) to remove residual bound ligand, prior to addition of radioligand.
(1 mM), forskolin (10 μM), insulin (100 ng/mL), IGF-1 ([…]) or dexamethasone (100 nM).

Test [2] has as its target T1, PTH1R (Homo sapiens, UniProt Q03431).
T1 sequence (Q03431 27-593): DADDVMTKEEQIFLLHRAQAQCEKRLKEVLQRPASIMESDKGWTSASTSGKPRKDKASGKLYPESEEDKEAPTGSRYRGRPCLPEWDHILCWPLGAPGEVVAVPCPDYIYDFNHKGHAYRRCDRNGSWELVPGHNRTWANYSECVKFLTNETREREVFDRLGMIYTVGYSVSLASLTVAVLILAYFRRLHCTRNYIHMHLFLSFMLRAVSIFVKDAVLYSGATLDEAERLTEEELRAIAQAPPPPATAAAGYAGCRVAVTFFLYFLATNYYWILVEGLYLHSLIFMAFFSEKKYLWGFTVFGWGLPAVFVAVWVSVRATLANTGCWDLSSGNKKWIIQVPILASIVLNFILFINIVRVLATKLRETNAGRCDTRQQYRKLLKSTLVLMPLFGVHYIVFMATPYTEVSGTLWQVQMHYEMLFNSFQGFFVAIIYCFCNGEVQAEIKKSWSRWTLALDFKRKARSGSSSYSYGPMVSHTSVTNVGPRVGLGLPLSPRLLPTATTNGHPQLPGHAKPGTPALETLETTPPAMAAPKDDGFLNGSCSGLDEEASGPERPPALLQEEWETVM
Conditions: cited from earlier work.

The test system of test [3] is OC14 cells. Put plainly: Cell death by trypan blue staining in OC14 cells. The test is classed as cell-based, mouse. Here is the method:
OC14 cells were plated, cultured at 33° C. for 3 days and then incubated at 39° C. for 5-7 days before addition of PTH peptides for a further 16 hr, followed by trypan blue staining (see Example 1). A) Human PTH 1-84 dose response, B) Response to hPTH(1-84), 100 nM and hPTH(39-84), 1000 nM, C) Response to [Tyr^34]hPTH(24-84), 100 nM, D) Caspase dependance (“C”=controls) The Caspase-3 inhibitor DEVD (“D”) was added 1 hr prior to addition of 100 nM hPTH(1-84) (“P”). Results are expressed as mean±SD of quadruplicate determinations of the percentage of nonvital trypan blue-stained cells. * p<0.05, ** p<0.01.
Briefly, cells were plated at 50,000 cells/well in 24-well dishes at 33° C. and shifted to nonpermissive conditions (39° C.) after 2 days. Cells were grown at 39° C. for an additional 4-6 days in α-MEM supplemented with 2.5% of FBS and 1% PS and then treated with different hormones for additional 16-18 hr. Non-adherent cells were combined with adherent cells that were released from the cultures with trypsin-EDTA, centrifuged and resuspended in 0.1% trypan blue solution.

Test [4] deals with Gs-linked PTH receptors. The experiment in a line: Cyclic AMP accumulation in C cells (OC1, OC14, OC59). The test is classed as cell-based, mouse. Conditions: three C cells. Here is the method:
The buffer then was rapidly aspirated, the plates were frozen in liquid nitrogen, and the frozen cells were subsequently thawed directly into 0.5 ml of 50 mM HCl. Cell-associated cAMP in the acid extracts was measured using an RIΛ kit (NUN Life Science Products, Boston, Mass., U.S.A.). Results were expressed as picomoles of cAMP produced per well over 15 min.

Test [5] relates to CPTHR. The experiment in a line: Competitive displacement of 125I-[Tyr34]hPTH(19-84) radioligand in C59 (OC59) cells. The test is classed as binding, mouse. Conditions: for Binding to the CPTHR: Example 2, either alone or in combination. Here is the method:
The human PTH peptides shown were tested for their ability to displace the ^125I-[Tyr^34]hPTH(19-84) tracer in C59 cells. Experiments were performed as described in FIG. 1. Results are expressed as the percentage of maximal specific binding observed in the absence of competing ligand and are shown as mean±standard deviation of triplicates in this representative experiment.
OC59 cells were incubated at 15° C. for 4 hr with ^125I[Tyr^34]hPTH(19-84) tracer (150,000 cpn/well) plus the indicated competing human PTH peptides. Results are means of triplicates.
The [Tyr^34]hPTH(19-84) peptide was radioiodinated with Na[^125I](2000 Ci/mmol) by the chloramine-T method and purified by HPLC, as previously described (Inomata, N., et al., Endocrinology 136:4732-4740 (1995)). For binding experiments, cells (100,000 cells/ml) were plated in 24-well dishes and cultured at 33° C. for 7 to 14 days. Confluent monolayers then were washed with 0.5 ml binding buffer [100 mM NaCl, 5 mM KCl, 2 mM CaCl2, 50 mM Tris-HCl (pH 7.8) plus 5% heat-inactivated horse serum] before incubation with ^125I-[Tyr^34]hPTH-(19-84) (100,000-200,000 cpm/well) in 0.5 ml binding buffer for 4 h at 15° C. Receptor number was ascertained by Scatchard analysis, using [Tyr^34]hPTH-(19-84) or hPTH(1-84) as competing ligand. […] In some experiments, cells were washed with acidic buffer (50 mM glycine, 150 mM NaCl, pH 4.0) to remove residual bound ligand, prior to addition of radioligand.
On the technique in general: In a radioligand displacement assay an active substance lowers the binding of a labelled ligand.

Test [6] concerns Gs-linked PTH receptors. Conditions: F1 cells and osteoblastic subclones; cited from earlier work.

Where two headings read alike, the source gives them in different places.

As for `C=C1/C(=C\C=C2/CCC[C@]3(C)[C@@H]([C@H](C)CCCC(C)(C)O)CC[C@@H]23)C[C@@H](O)C[C@@H]1O` [1,25(OH)2D3], in test [1] (10 nM), the “Downregulation of CPTHR binding” value is given as “No downregulation”.
Take `CCCCCCCCCCCCCC(=O)O[C@@H]1[C@@H](C)[C@@]2(O)[C@@H](C=C(CO)C[C@]3(O)C(=O)C(C)=C[C@@H]23)[C@H]2C(C)(C)[C@]12OC(C)=O` [TPA]: in test [1], the “Radioligand binding, % of controls after drug removal” value is 63%. Also, the “Reduction of specific binding” value in test [1] (10 nM) was 48±12%.
`C[C@H](CCC(=O)O)C[C@H](C)C[C@H](C)C(=O)/C=C(\O)[C@H](C)C[C@H](C)C/C=C/[C@@H](C)[C@@H](O)[C@@H](C)[C@@H](O)C[C@@H]1CC[C@@](C)([C@H]2CC[C@@](C)([C@@H](C)O)O2)O1` [ionomycin]: the “Radioligand binding, % of controls after drug removal” value in test [1] is 100%. For the same compound, in test [1] (1 μM), the “Reduction of specific binding” value was found to be 71±3%.
In the case of IGF-1: IGF-1, the “Downregulation of CPTHR binding” value in test [1] was “No downregulation”.
With “PTH(53-84): Carboxyl fragment 53-84 of intact PTH (KKEDNVLVESHEKSLGEADKADVNVLTKAKSQ; Parathyroid hormone; UniProt P01270 84-115, looked up, fragment)”, in test [2], the “Binding and activation of the PTH1R” value is given as “neither bind nor activate”.
In the case of “hPTH(1-34): Amino-terminal human PTH fragment 1-34”, in test [3] (concentrations as high as 1000 nM), the “Effect on cell death (trypan blue)” value was “inactive”. In addition, the cAMP response entry in test [4] is listed as “absence of a detectable cAMP response”; in test [6], “no detectable cAMP response”. The “Displacement of the tracer” value in test [5] (concentrations up to 1000 nM) was “did not displace the tracer significantly”. Further, in test [1] (1 μM), the “Downregulation of CPTHR binding” value is on record as “No downregulation”.
Consider “hPTH(20-30): Short synthetic human PTH peptide spanning residues 20-30 (RVEWLRKKLQD; Parathyroid hormone; UniProt P01270 51-61, looked up, fragment)”, for which the “Binding to the CPTHR” value in test [5] is listed as “failed to bind”.
“hPTH(24-54): Short synthetic human PTH peptide spanning both binding domains 24-27 and 53-54 (LRKKLQDVHNFVALGAPLAPRDAGSQRPRKK; Parathyroid hormone; UniProt P01270 55-85, looked up, fragment)”: the 50% effective concentration (EC50) in test [5] (Example 2, PTH1R-null CPTHR-expressing calvarial-derived clonal cells, read-out: apparent EC50, competition of [Tyr34]125I-hPTH(19-84) tracer) is 20 µM.
For the compound “hPTH(39-84): C-terminal human PTH fragment 39-84, purchased from Peninsula (APLAPRDAGSQRPRKKEDNVLVESHEKSLGEADKADVNVLTKAKSQ; Parathyroid hormone; UniProt P01270 70-115, looked up, fragment)”, the “Increase in trypan blue-stained cells over basal” value in test [3] (1000 nM, 16 hr) was 1.5 fold. Moreover, in test [5] (C59 cells, 4 h at 15° C.), the half-maximal inhibitory concentration (IC50) lay within 0.5 to 0.7 µM. For the same compound, the “IC50 relative to hPTH(1-84) and hPTH(19-84)” value in test [5] (OC cells) is reported as “roughly 15 fold”. Further, in test [2], the “Binding and activation of the PTH1R” value was “neither bind nor activate”. Further, in test [1] (1 μM), the “Downregulation of CPTHR binding” value is “No downregulation”.
Take “hPTH(50-60): Short synthetic human PTH peptide spanning residues 50-60 (RPRKKEDNVLV; Parathyroid hormone; UniProt P01270 81-91, looked up, fragment)”: the “Binding to the CPTHR” value in test [5] is “failed to bind”.
In the case of “hPTHrP(1-36): Human PTH-related peptide fragment 1-36”, the cAMP response entry in test [6] is on record as “no detectable cAMP response”.
For the compound insulin: insulin, in test [1] (100 ng/mL), the “Downregulation of CPTHR binding” value is “No downregulation”.

The values above are taken from patent US7270968B2, “PTH analogs for renal osteodystrophy and related uses” (The General Hospital Corporation, priority 2000, dated 2007).
